Test results as given in PubChem BioAssay AID1053207 (Broad Institute, 2014).
Activity calls are given as the source filed them. No rule for the calls is given here.

Assays:
[1] = system: Vaccinia-infected cells, mCherry/Venus stage reporter fluorescence; experiment: Stage specific inhibitors, Vaccinia infected cells, mCherry fluorescence, dry powder confirmation (AID 1053207)
[2] = as above; settings: Vaccinia-infected cells, mCherry/Venus stage reporter fluorescence; for max activity: measured here: Venus reporter max activity
[3] = measured here: mCherry reporter channel

## C[C@@H](O)C#Cc1ccc2c(c1)O[C@@H](CN(C)S(=O)(=O)c1ccc(-c3ccccc3)cc1)[C@@H](C)CN([C@@H](C)CO)S2(=O)=O
[1]; measured here: Venus reporter channel
  AC50: > 39000 nM
[1]; [3]
  AC50: > 39000 nM
[2]; at 19.5 µM (top of the series)
  activity change, negative = inhibition: -18.5% (inactive)
[2]; at 10 µM
  max activity: -14.6%

## Cc1ccc(-c2ccc(CN(C)C[C@@H]3Oc4cc(C#C[C@@H](C)O)ccc4S(=O)(=O)N([C@@H](C)CO)C[C@@H]3C)cc2)cc1
[1]
  AC50: 1250 nM
[1]; [3]
  AC50: 1250 nM
[2]; at 1.2 µM
  max activity: 122%

## C[C@@H](O)C#Cc1ccc2c(c1)O[C@@H](CN(C)Cc1ccc(-c3ccccc3Cl)cc1)[C@@H](C)CN([C@@H](C)CO)S2(=O)=O
[1]
  AC50: 1190 nM
[1]; [3]
  AC50: 1190 nM
[2]; at 2.6 µM
  max activity: 145%

## C[C@@H](O)C#Cc1ccc2c(c1)O[C@@H](CN(C)Cc1ccc(-c3ccccc3)cc1)[C@@H](C)CN([C@@H](C)CO)S2(=O)=O
[1]
  AC50: 2350 nM
[1]; [3]
  AC50: 2350 nM
[2]; at 2.6 µM
  max activity: 115%

## Cc1ccccc1-c1ccc(CN(C)C[C@@H]2Oc3cc(C#C[C@@H](C)O)ccc3S(=O)(=O)N([C@@H](C)CO)C[C@@H]2C)cc1
[1]
  AC50: 1230 nM
[1]; [3]
  AC50: 1230 nM
[2]; at 2.6 µM
  max activity: 157%

## Cc1cccc(-c2ccc(CN(C)C[C@@H]3Oc4cc(C#C[C@@H](C)O)ccc4S(=O)(=O)N([C@@H](C)CO)C[C@@H]3C)cc2)c1
[1]
  AC50: 1660 nM
[1]; [3]
  AC50: 1660 nM
[2]; at 2.6 µM
  max activity: 140%
